From publication PMC4729491, “The Cellular Thioredoxin-1/Thioredoxin Reductase-1 Driven Oxidoreduction Represents a Chemotherapeutic Target for HIV-1 Entry Inhibition” (PLoS ONE, 2016) come the findings set out here.

One experiment concerns the target T1, TrxR1 (Homo sapiens, UniProt Q16881).
T1 construct: purchased IMCO Corporation (Stockholm, Sweden) or Sino Biological Inc (Zoersel, Belgium)
T1 sequence (Q16881 1-499 isoform Q16881-5): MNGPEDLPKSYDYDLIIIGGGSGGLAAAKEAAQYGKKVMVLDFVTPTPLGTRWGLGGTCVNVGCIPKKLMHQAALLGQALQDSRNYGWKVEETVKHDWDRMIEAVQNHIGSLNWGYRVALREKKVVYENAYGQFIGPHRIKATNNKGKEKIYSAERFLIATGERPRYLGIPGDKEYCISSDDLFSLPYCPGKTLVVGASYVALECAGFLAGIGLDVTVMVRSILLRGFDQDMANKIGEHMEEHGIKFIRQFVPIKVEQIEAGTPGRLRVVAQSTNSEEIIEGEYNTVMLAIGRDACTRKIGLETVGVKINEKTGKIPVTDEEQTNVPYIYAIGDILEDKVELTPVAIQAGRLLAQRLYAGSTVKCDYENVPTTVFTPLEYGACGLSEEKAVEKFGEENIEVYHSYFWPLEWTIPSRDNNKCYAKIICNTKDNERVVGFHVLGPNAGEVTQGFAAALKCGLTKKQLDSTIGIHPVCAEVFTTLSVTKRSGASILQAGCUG
The experiment in a line: SPR binding to immobilized TrxR1. The note with it: 10, 50 and 250 μM. The protocol:
SPR analysis was performed to evaluate binding of TE-2 to immobilized recombinant TrxR1, PDI, gp120, gp41 and sCD4. Therefore, these ligands were immobilized on a CM5 sensor chip (GE Healthcare, Uppsala, Sweden) using standard amine coupling in the presence of 10 mM sodium acetate, pH 5. A high ligand-density chip was created, with ligand densities of 6759, 5004, 4119, 2900 and 5569 RU, respectively. A reference flow cell was used to control for non-specific binding and refractive index changes. All interactions were studied at 25°C on a Biacore T200 instrument (GE Healthcare, Uppsala, Sweden) in HBS-P (10 mM HEPES, 150 mM NaCl and 0.05% surfactant P20; pH 7.4) supplemented with 10 mM CaCl2 and 5% DMSO. TE-2 was tested at the concentrations 10, 50 and 250 μM. Samples were injected during 2 minutes at a flow rate of 30 μl/min, followed by a dissociation phase of 2 minutes. Each injection was followed by a regeneration step with 50 mM NaOH (injected during 10 seconds at a flow rate of 100 μl/min).
A general note: SPR reads the build-up and loss of mass on a sensor chip optically.

The test system of the next experiment is HIV-1(HE). Put plainly: Antiviral activity in PHA-stimulated PBMCs (p24 ELISA), HIV-1(HE). The experiment is classed as cell-based. The note with it: PHA-stimulated PBMCs; mean ± SD; read-out: EC50 HIV-1 (HE). As for the experimental part: To test the antiviral activity in fresh, PHA-stimulated PBMCs, an experiment was performed as previously described. Briefly, the cells were preincubated with HIV-1(IIIB), HIV-1(BaL) or HIV-1(HE) for 1 h at 37°C, using a viral load of 1000 x CCID50 per ml. Then, cell suspensions containing virus and 2 x 10^5 PBMCs were seeded in a 96-well microtiter plate and a serial dilution of compound was added, in a total volume of 200 μl. After 4 days, the cells were passaged and fresh culture medium, containing IL-2 and compound, was added. Three days later, cellular supernatants were harvested and viral replication in the presence of the compounds was quantified using a p24 enzyme-linked immunosorbent assay (ELISA) (Perkin Elmer, Brussels, Belgium). The half maximal effective concentration (EC50) was defined as the compound concentration that is required to block viral replication by 50%.
Background: An ELISA detects its analyte on a solid surface through an enzyme-linked reagent.

The test system of a further experiment is HIV-1(IIIB). Put plainly: microbe, parasite or virus in culture. The experiment is classed as cell-based. The settings on record: CEM cells. As for the experimental part: To study the antiviral activity in transformed cells, CEM cells were suspended in fresh culture medium and infected with HIV-1(IIIB) or HIV-2(ROD) at 100 x CCID50 (cell culture infective dose 50%) per ml of cell suspension. Infected cell suspension (100 μl; 3 x 10^5 cells/ml) was transferred to a 96-well microplate, mixed with 100 μl of the appropriate dilutions of compounds, and further incubated at 37°C. After 4 days, giant cell formation was recorded microscopically and the number of giant cells was estimated microscopically as percentage of the number of giant cells present in the non-treated virus-infected cell cultures.

Values joined by “and” are separate entries in the source; they are usually repeats but may differ in a detail not shown here. Identical values can stand only once.

As for “6-(butyltelluro)-6-deoxy-β-cyclodextrin [TE-2]”, the “SPR binding to TrxR1” value at TrxR1 was “able to specifically bind TrxR1”. Besides, the EC50 (commonly the concentration giving half of the maximal effect) with HIV-1(HE) amounted to 6.6 ± 4.2 µM; with HIV-1(IIIB) (concentration required to protect against cytopathogenicity of HIV by 50%, mean ± SD, read-out: EC50 HIV-1 (IIIB)), 1.1 ± 0.25 µM. The “Ratio IC50/EC50 HIV-1 (CEM)” value with HIV-1(IIIB) is 227. The “antiviral selectivity SI = IC50/EC50” value in the experiment with HIV-1(IIIB) (over HIV-1 and HIV-2) is 167–227 and > 100.
